How the values were obtained:
[1] = test system: NCI/ADR-RES (Ovarian cancer); test: NCI-60 screen (SRB, 48 h); settings: Homo sapiens; for IC (TGI): 48 h, read-out: TGI; for CC50: read-out: LC50
HOP-62 (NSC lung cancer) = test: NCI-60 screen (SRB, 48 h); settings: Homo sapiens; for GI50: HOP-62; for IC (TGI): HOP-62, 48 h, read-out: TGI
[2] = test system: NCI-H23 (NSC lung cancer); test: NCI-60 screen (SRB, 48 h); settings: Homo sapiens; for GI50: NCI-H23; for IC (TGI): NCI-H23, 48 h, read-out: TGI
Colon Cancer subpanel = test: NCI-60 screen, subpanel; settings: Homo sapiens; for IC (TGI): 48 h, read-out: TGI MG_MID; for GI50: read-out: GI50 MG_MID
OVCAR-8 (Ovarian cancer) = test: NCI-60 screen (SRB, 48 h); settings: for GI50: OVCAR-8; for IC (TGI): OVCAR-8, 48 h, read-out: TGI
[3] = test system: NCI-H460 (NSC lung cancer); test: NCI-60 screen (SRB, 48 h); settings: Homo sapiens; for GI50: NCI-H460; for IC (TGI): NCI-H460, 48 h, read-out: TGI
SK-MEL-5 (Melanoma) = test: NCI-60 screen (SRB, 48 h); settings: Homo sapiens; for GI50: SK-MEL-5; for IC (TGI): SK-MEL-5, 48 h, read-out: TGI
Leukemia subpanel = test: cells; settings: Homo sapiens; for IC (TGI): 48 h, read-out: TGI MG_MID; for GI50: read-out: GI50 MG_MID; for CC50: read-out: LC50 MG_MID
Ovarian Cancer subpanel = test: NCI-60 screen, subpanel; settings: Homo sapiens; for IC (TGI): 48 h, read-out: TGI MG_MID; for GI50: read-out: GI50 MG_MID; for CC50: read-out: LC50 MG_MID
MOLT-4 (Leukemia) = test: NCI-60 screen (SRB, 48 h); settings: Homo sapiens; for GI50: MOLT-4
HT29 (Colon cancer) = test: NCI-60 screen (SRB, 48 h); settings: Homo sapiens; for GI50: HT-29; for IC (TGI): HT-29, 48 h, read-out: TGI
Breast cancer subpanel = test: NCI-60 screen, subpanel; settings: Homo sapiens; for IC (TGI): 48 h, read-out: TGI MG_MID; for GI50: read-out: GI50 MG_MID; for CC50: read-out: LC50 MG_MID
SK-MEL-28 (Melanoma) = test: NCI-60 screen (SRB, 48 h); settings: Homo sapiens; for GI50: SK-MEL-28; for IC (TGI): SK-MEL-28, 48 h, read-out: TGI; for CC50: SK-MEL-28, read-out: LC50
DU-145 (Prostate cancer) = test: NCI-60 screen (SRB, 48 h); settings: Homo sapiens; for GI50: DU-145; for IC (TGI): DU-145, 48 h, read-out: TGI; for CC50: DU-145, read-out: LC50
MDA-MB-435 (Melanoma) = test: NCI-60 screen (SRB, 48 h); type: cell-based; settings: Homo sapiens; for GI50 / CC50: MDA-MB-435; for IC (TGI): MDA-MB-435, 48 h, read-out: TGI; for CC50: read-out: LC50 (the source's name)
OVCAR-4 (Ovarian cancer) = test: NCI-60 screen (SRB, 48 h); type: cell-based; settings: Homo sapiens; for IC (TGI): OVCAR-4, 48 h; for GI50: read-out: GI50
U251 (CNS cancer) = test: NCI-60 screen (SRB, 48 h); settings: for GI50: U-251; for IC (TGI): U-251, 48 h, read-out: TGI
BT-549 (Breast cancer) = test: NCI-60 screen (SRB, 48 h); type: cell-based; settings: Homo sapiens; for IC (TGI): BT-549, 48 h
SF-268 (CNS cancer) = test: NCI-60 screen (SRB, 48 h); settings: Homo sapiens; for GI50: SF-268; for IC (TGI): SF-268, 48 h, read-out: TGI
SF-539 (CNS cancer) = test: NCI-60 screen (SRB, 48 h); settings: Homo sapiens; for GI50: SF-539; for IC (TGI): SF-539, 48 h, read-out: TGI
LOX IMVI (Melanoma) = test: NCI-60 screen (SRB, 48 h); type: cell-based; settings: Homo sapiens; for IC (TGI) / activity at 10 µM: 48 h; for activity at 10 µM: 1 dose 10 µM, read-out: Growth % of the Most Sensitive Cell Lines; for GI50: read-out: GI50
HS 578T (Breast cancer) = test: NCI-60 screen (SRB, 48 h); settings: Homo sapiens; for IC (TGI): 48 h, read-out: TGI; for CC50: read-out: LC50
[4] = test system: MDA-MB-468 (Breast cancer); test: cells; settings: Homo sapiens; for GI50: MDA-MB-468; for IC (TGI): MDA-MB-468, 48 h, read-out: TGI; for CC50: MDA-MB-468, read-out: LC50
TK-10 (Renal cancer) = test: NCI-60 screen (SRB, 48 h); settings: Homo sapiens; for GI50: TK-10; for IC (TGI): TK-10, 48 h, read-out: TGI; for CC50: TK-10, read-out: LC50
OVCAR-3 (Ovarian cancer) = test: cells; settings: Homo sapiens; for GI50: OVCAR-3; for IC (TGI): OVCAR-3, 48 h, read-out: TGI

## C=C(C)[C@@H]1CCC=C2CC[C@]3(C)[C@H](CC[C@@H]4[C@@]5(C)CCCNC(C)(C)[C@@H]5CC[C@]43C)[C@H]21 [Compound 8]
[1]
  GI50: 1.98 µM
  IC (TGI): 3.8 µM
  CC50: 7.3 µM
HOP-62 (NSC lung cancer)
  GI50: 1.82 µM
  IC (TGI): 3.41 µM
HOP-62 (NSC lung cancer); HOP-62, read-out: LC50
  CC50: 6.38 µM
[2]
  GI50: 1.83 µM
  IC (TGI): 3.4 µM
Colon Cancer subpanel
  IC (TGI): 3.02 µM
  GI50: 1.51 µM
Colon Cancer subpanel; read-out: LC50 MG_MID
  CC50: 5.87 µM
OVCAR-8 (Ovarian cancer); Homo sapiens
  GI50: 1.99 µM
  IC (TGI): 3.94 µM
OVCAR-8 (Ovarian cancer); Homo sapiens, OVCAR-8, read-out: LC50
  CC50: 7.79 µM
[3]
  GI50: 1.22 µM
  IC (TGI): 2.81 µM
SK-MEL-5 (Melanoma)
  GI50: 1.7 µM
  IC (TGI): 3.14 µM
Leukemia subpanel
  IC (TGI): 5.18 µM
  GI50: 1.48 µM
  CC50: > 100 µM
Ovarian Cancer subpanel
  IC (TGI): 3.5 µM
  GI50: 1.84 µM
  CC50: 6.78 µM
MOLT-4 (Leukemia)
  GI50: 1.09 µM
HT29 (Colon cancer)
  GI50: 1.2 µM
  IC (TGI): 2.58 µM
HT29 (Colon cancer); HT-29, read-out: LC50
  CC50: 5.56 µM
Breast cancer subpanel
  IC (TGI): 3.47 µM
  GI50: 1.71 µM
  CC50: 8.38 µM
SK-MEL-28 (Melanoma)
  GI50: 1.81 µM
  IC (TGI): 3.35 µM
  CC50: 6.18 µM
DU-145 (Prostate cancer)
  GI50: 1.77 µM
  IC (TGI): 3.33 µM
  CC50: 6.26 µM
MDA-MB-435 (Melanoma)
  GI50: 1.87 µM
  IC (TGI): 3.49 µM
  CC50: 6.51 µM
OVCAR-4 (Ovarian cancer)
  IC (TGI): 3.39 µM
OVCAR-4 (Ovarian cancer); OVCAR-4
  GI50: 1.86 µM
OVCAR-4 (Ovarian cancer); OVCAR-4, read-out: LC50 (the source's name)
  CC50: 6.17 µM
U251 (CNS cancer); Homo sapiens
  GI50: 1.76 µM
  IC (TGI): 3.26 µM
U251 (CNS cancer); Homo sapiens, U-251, read-out: LC50
  CC50: 6.07 µM
BT-549 (Breast cancer); BT-549
  GI50: 1.68 µM
BT-549 (Breast cancer)
  IC (TGI): 3.23 µM
SF-268 (CNS cancer)
  GI50: 1.91 µM
  IC (TGI): 3.64 µM
SF-539 (CNS cancer)
  GI50: 1.52 µM
  IC (TGI): 2.99 µM
LOX IMVI (Melanoma)
  IC (TGI): 3.16 µM
  activity at 10 µM: -99.5%
  GI50: 1.67 µM
HS 578T (Breast cancer)
  GI50: 1.87 µM
  IC (TGI): 4.39 µM
  CC50: 15.9 µM
[4]
  GI50: 1.78 µM
  IC (TGI): 3.43 µM
  CC50: 6.6 µM
TK-10 (Renal cancer)
  GI50: 1.88 µM
  IC (TGI): 3.45 µM
  CC50: 6.32 µM
OVCAR-3 (Ovarian cancer)
  GI50: 1.79 µM
  IC (TGI): 3.4 µM

## CC(C)=C1CCC=C2CC[C@]3(C)[C@H](CC[C@@H]4[C@@]5(C)CCCNC(C)(C)[C@@H]5CC[C@]43C)[C@H]21 [Compound 9]
[1]
  GI50: 1.84 µM
  IC (TGI): 3.52 µM
  CC50: 6.73 µM
HOP-62 (NSC lung cancer)
  GI50: 1.7 µM
  IC (TGI): 3.25 µM
[2]
  GI50: 1.78 µM
  IC (TGI): 3.37 µM
[2]; NCI-H23, read-out: LC50
  CC50: 6.39 µM
Colon Cancer subpanel
  IC (TGI): 3.03 µM
  GI50: 1.55 µM
OVCAR-8 (Ovarian cancer); Homo sapiens
  GI50: 2.01 µM
  IC (TGI): 4.25 µM
OVCAR-8 (Ovarian cancer); OVCAR-8, 1 dose 10 µM
  Growth % of the Most Sensitive Cell Lines: −87.34%
[3]
  GI50: 1.48 µM
  IC (TGI): 3.09 µM
[3]; NCI-H460, read-out: LC50
  CC50: 6.45 µM
SK-MEL-5 (Melanoma)
  GI50: 1.7 µM
  IC (TGI): 3.08 µM
SK-MEL-5 (Melanoma); SK-MEL-5, read-out: LC50
  CC50: 5.56 µM
Leukemia subpanel
  IC (TGI): 3.59 µM
  GI50: 1.55 µM
  CC50: 7.19 µM
Ovarian Cancer subpanel
  IC (TGI): 3.51 µM
  GI50: 1.86 µM
  CC50: 6.19 µM
MOLT-4 (Leukemia)
  GI50: 1.59 µM
MOLT-4 (Leukemia); MOLT-4, 48 h, read-out: TGI
  IC (TGI): 3.7 µM
HT29 (Colon cancer)
  GI50: 0.94 µM
  IC (TGI): 2.31 µM
Breast cancer subpanel
  IC (TGI): 3.49 µM
  GI50: 1.72 µM
  CC50: 7.06 µM
SK-MEL-28 (Melanoma)
  GI50: 1.81 µM
  IC (TGI): 3.32 µM
  CC50: 6.11 µM
DU-145 (Prostate cancer)
  GI50: 1.98 µM
  IC (TGI): 3.55 µM
  CC50: 6.38 µM
MDA-MB-435 (Melanoma)
  GI50: 1.85 µM
  IC (TGI): 3.28 µM
  CC50: 5.81 µM
OVCAR-4 (Ovarian cancer)
  IC (TGI): 3.6 µM
OVCAR-4 (Ovarian cancer); OVCAR-4
  GI50: 1.99 µM
U251 (CNS cancer); Homo sapiens
  GI50: 1.69 µM
  IC (TGI): 3.17 µM
U251 (CNS cancer); U251, 1 dose 10 µM
  Growth % of the Most Sensitive Cell Lines: −90.81%
BT-549 (Breast cancer); BT-549
  GI50: 1.66 µM
BT-549 (Breast cancer)
  IC (TGI): 3.14 µM
BT-549 (Breast cancer); BT-549, read-out: LC50 (the source's name)
  CC50: 5.96 µM
SF-268 (CNS cancer)
  GI50: 1.97 µM
  IC (TGI): 3.71 µM
SF-268 (CNS cancer); SF-268, read-out: LC50
  CC50: 6.98 µM
SF-539 (CNS cancer)
  GI50: 1.69 µM
  IC (TGI): 3.13 µM
SF-539 (CNS cancer); SF-539, read-out: LC50
  CC50: 5.8 µM
LOX IMVI (Melanoma)
  IC (TGI): 3.01 µM
  activity at 10 µM: -100%
  GI50: 1.65 µM
LOX IMVI (Melanoma); read-out: LC50 (the source's name)
  CC50: 5.49 µM
HS 578T (Breast cancer)
  GI50: 1.79 µM
  IC (TGI): 4.04 µM
  CC50: 9.11 µM
[4]
  GI50: 1.68 µM
  IC (TGI): 3.3 µM
  CC50: 6.5 µM
TK-10 (Renal cancer)
  GI50: 1.81 µM
  IC (TGI): 3.37 µM
  CC50: 6.3 µM
OVCAR-3 (Ovarian cancer)
  GI50: 1.91 µM
  IC (TGI): 3.37 µM
OVCAR-3 (Ovarian cancer); OVCAR-3, read-out: LC50
  CC50: 5.93 µM

Reference: article PMC7914897, “Cytotoxic Potential of a-Azepano- and 3-Amino-3,4-SeCo-Triterpenoids” (International Journal of Molecular Sciences, 2021)
